System: B-cells (CD22) in human whole blood
Test: Whole blood B-cell depletion assay
Assay type: cell-based
Conditions: overnight 37° C.; for % Change: B-cell depletion vs non-treated group
Procedure: To determine if the anti-CD19 antibodies were capable of depleting B-cells, a whole blood B-cell depletion assay was set up.
Human whole blood was purchased from AllCells Inc. (Berkeley, Calif.) and delivered the same day at room temperature. Two ml of whole blood was incubated in the absence or presence of […] of the indicated antibodies, or PBS as the untreated group. The blood-antibody mixture was incubated overnight at 37° C. with 5% CO2. On the day of the experiment, the blood was lysed twice with RBC lysis buffer at 1:10 ratio by incubating for 10 minutes followed by centrifugation. After the second spin, the cell pellets were washed once with FACS buffer (PBS plus Calcium and Magnesium with 2% FBS and 20% versene), and followed by FAGS staining with anti-CD3 antibody (Becton Dickinson) as the T-Cell makers and anti-CD22 antibody (Becton Dickinson) as a B-cell makers using standard Flow cytometry protocols. Cells were incubated on ice for 20 min prior to the final washes and resuspended in […] propidium iodide solution (Sigma) in FACS buffer. Data was collected by flow cytometry using a FASCalibur system and CellQuest software by Becton Dickinson, and analyzed via FlowJo software using lymphocyte size gating. Percent change was calculated by determining the % positive B-cells in the non-treated group minus the % positive B-cells in the antibody treated group divided by % positive B-cells in the non treated group times 100. From a healthy blood donor, 8.7% B-cells remained in the blood following an overnight incubation (no antibody). Incubating whole blood with […] of positive control Rituxan led to a 46% depletion in the number of B-cells when compared to the untreated, no antibody group.

Rituxan: positive control in the whole blood B-cell depletion assay [reference compound]
% Change: 46%
% Change (listed as Rituxan ®): 46.3%
% Positive (CD22) (1-30 mg/ml antibody): 4.7%

— patent publication US20100104509A1, “HUMAN ANTIBODIES THAT BIND CD19 AND USES THEREOF” (Medarex, Inc., priority 2006, published 2010)
